We go through eight compounds from publication PMC7865754, “Design and Synthesis of π-Extended Resveratrol Analogues and In Vitro Antioxidant and Anti-Inflammatory Activity Evaluation” (Molecules, 2021).

Values joined by “and” are separate entries in the source; they are usually repeats but may differ in a detail not shown here. Equal values may be shown once.

The subject of one series is IL-6 gene expression in LPS-stimulated RAW 264.7 cells. As to the kind of experiment: Pro-inflammatory cytokine gene expression by endpoint RT-PCR, IL-6. It is filed as cell-based, Murine. To be noted: 12.5~50 μM compound, 1 μg/mL LPS, 24 h. On the procedure:
(§1) We have further investigated whether resveratrol and its analogues can reduce the inflammatory activity of macrophages. For this purpose, we examined the downregulation of pro-inflammatory cytokine gene expression of LPS-stimulated RAW 264.7 cells by potent inhibitors of NO production (1, 2, 5, and 7) (Figure 2). […] Treatment with 50 μM of analogue 2 was highly toxic to the cells.
(§2) Figure 2 Inhibitory effects of 1–7 on pro-inflammatory cytokine production of activated macrophage cells. RAW 264.7 cells were treated with 1 μg/mL LPS for 24 h in the presence of the indicated amounts (12.5~50 μM) of compounds. Gene expression levels were analyzed by endpoint reverse transcriptase-polymerase chain reaction and 1.5% agarose gel electrophoresis. GAPDH was used as a control.
(§3) Reverse transcriptase-polymerase chain reaction (RT-PCR)
(§4) Total RNA was isolated from Raw 264.7 cells using TRIzol reagent (Invitrogen, Waltham,
(§5) MA, USA). Relative levels of pro-inflammatory cytokine gene expression were tested by
(§6) 1.5% agarose gel electrophoresis after endpoint RT-PCR using GoScript™ Reverse
(§7) Transcriptase (Promega). The sequences of the sense and anti-sense primers used for
(§8) amplification are as follows. IL-1β, 5’-[…]-3’, 5’-
(§9) TNF-α, 5’-[…]-3’, 5’-GGCACCA
(§10) -3’. As a control, glyceraldehyde-3-phosphate dehydrogenase
(§11) (GAPDH) gene was also amplified using 5’-[…]-3’, 5’-
(§12) (1 picture or pasted object on this page, not shown here)
Consider `Oc1cc(O)cc(/C=C/c2ncc3cc(O)ccc3n2)c1` [Compound 7], for which the “Level of IL-6 gene expression” value was “significantly reduced”.

As for `Oc1cc(O)cc(/C=C/c2ccc3cc(O)ccc3c2)c1` [Compound 2], the “Level of IL-6 gene expression” value was “significantly reduced”.

As for `Oc1ccc(/C=C/c2cc(O)cc(O)c2)cc1` [Compound 1, 3,5,4′-trihydroxy-trans-stilbene, reference compound], the “Level of IL-6 gene expression” value was “significantly reduced”.

For the compound `Oc1cc(O)cc(/C=C/c2cc3ccc(O)cc3cn2)c1` [Compound 5], the “Level of IL-6 gene expression” value is recorded as “significantly reduced”.

A further series concerns RAW 264.7 cells. In words: Cell viability (MTT) assay. In kind it is cell-based. The settings on record: 50 μM, LPS-stimulated RAW 264.7 cells, seen in the RT-PCR experiment (RNA degraded, no PCR amplification). An excerpt:
In the pathogenesis of inflammatory-related disorders, NO is recognized as one of the important mediators. […] Herein, to understand the anti-inflammatory properties of the resveratrol analogues, we studied their inhibitory effects against NO production in LPS-treated RAW 264.7 cells. Although it is not possible to measure NO quantitatively in a biological environment due to its rapid oxidation to NO2 (nitrite), short physiological half-life and presence of other free radicals, NO secretion activity in cells is indirectly determined by Griess assay counting its stable product NO2 levels. The inhibitory effects of 1–7 on NO production were collected in Table 2. […] Cell viability was not affected up to 50 μM except for 2. We also applied in vitro efficacy index (iEI) paradigm, the ratio of toxicity (LD50)/anti-inflammatory potency (ED50), to confirm that the anti-inflammatory activity is in the viable cells only. […] On the whole, compounds 5 and 7 have much-improved iEI values compared to any other compounds. […]
NO assay and cell viability test
Murine macrophage, Raw 264.7 cells were grown in Dulbecco’s modified Eagle’s medium (Gibco, Carlsbad , CA, USA), supplemented with 2 mM glutamine, antibiotics (100 U/mL of penicillin A and […] of streptomycin) and 10% FBS (Gibco). Cells were cultured in 96-well plates (5×10^4 cells), treated with serial dilutions of compound (3.125-100 µM) and stimulated with LPS (1 µg/mL) for 24 h at 37°C. After incubation, the supernatant was collected and the amount of nitrite was quantified using the Griess Reagent System ( Promega, Fitchburg, WI, USA ). For the correction of NO production, cell viability was measured using the CellTiter 96® Aqueous one solution cell proliferation assay kit (Promega). Cells were incubated with varying amounts of compound for 24 h, then MTS (tetrazolium salt) reagent was added to the plates. After 1h, the absorbance at 490 nm was read using a microplate reader (Thermo Scientific, Waltham, MA, USA).
(§13) Statistical analysis. Statistical significance was analyzed using the GraphPad Prism 5 software (GraphPad Software, San Diego, CA, USA). The comparison of two groups was performed by the unpaired t test. Values of *P less than 0.05, **P less than 0.01 and ***P less than 0.001 were considered statistically significant.
Turning to `Oc1cc(O)cc(/C=C/c2ccc3cc(O)ccc3c2)c1` [Compound 2], the “Toxicity to the cells” value is recorded as “highly toxic”.

The same series, now with this note: RAW 264.7 cells, 24 h; mean ± SEM, n = 3.
In the case of `Oc1cc(O)cc(/C=C/c2ncc3cc(O)ccc3n2)c1` [Compound 7], the “Cell Viability LD50” value came to 92.58 ± 8.745 µM.

Regarding `Oc1cc(O)cc(/C=C/c2ccc3cc(O)ccc3c2)c1` [Compound 2], the “Cell Viability LD50” value was 28.82 ± 0.767 µM.

Regarding `Oc1cc(O)cc(/C=C/c2cnc3cc(O)ccc3n2)c1` [Compound 6], the “Cell Viability LD50” value stood at 120.46 ± 4.237 µM.

As for `Oc1cc(O)cc(/C=C/c2ccc3cc(O)ccc3n2)c1` [Compound 4], the “Cell Viability LD50” value amounted to 123.47 ± 6.388 µM.

With `Oc1cc(O)cc(/C=C/c2cnc3cc(O)ccc3c2)c1` [Compound 3], the “Cell Viability LD50” value amounted to 167.12 ± 13.652 µM.

`Oc1cc(O)cc(/C=C/c2cc3ccc(O)cc3cn2)c1` [Compound 5]: the “Cell Viability LD50” value stood at 63.30 ± 1.139 µM.

Still in this series, the particulars now being: mouse, 24 h.
As for `Oc1ccc(/C=C/c2cc(O)cc(O)c2)cc1` [Compound 1, 3,5,4′-trihydroxy-trans-stilbene, reference compound], the “Cell Viability LD50” value worked out at 81.08 ± 9.258 µM.

The next series relates to TNF-α gene expression in LPS-stimulated RAW 264.7 cells. In words: Pro-inflammatory cytokine gene expression by endpoint RT-PCR, TNF-α. The settings on record: 12.5~50 μM compound, 1 μg/mL LPS, 24 h. In kind it is cell-based, Murine. The procedure:
as §1, §2, §3, §4, §5, §6, §7, §8, §9, §10, §11, §12
With `Oc1cc(O)cc(/C=C/c2ncc3cc(O)ccc3n2)c1` [Compound 7], the “Level of TNF-α gene expression” value was “did not change”.

Turning to `Oc1cc(O)cc(/C=C/c2ccc3cc(O)ccc3c2)c1` [Compound 2], the “Level of TNF-α gene expression” value was “did not change”.

`Oc1ccc(/C=C/c2cc(O)cc(O)c2)cc1` [Compound 1, 3,5,4′-trihydroxy-trans-stilbene, reference compound]: the “Level of TNF-α gene expression” value is “did not change”.

`Oc1cc(O)cc(/C=C/c2cc3ccc(O)cc3cn2)c1` [Compound 5]: the “Level of TNF-α gene expression” value is given as “did not change”.

System in another series: not listed separately
As to the kind of experiment: In vitro ABTS radical scavenging assay. The settings on record: mean ± SEM, n = 3; 30 min incubation, absorbance at 734 nm. On the procedure:
ABTS (2,2′-azinobis (3-ethylbenzothiazoline-6-sulfonic acid) diammonium salt) assay was used for the antioxidant estimation. Though many methods are available, this appears to be the most popular because of its operational simplicity, short experimental time, and the employment of the inexpensive spectrophotometer.
Antioxidant activity was tested in the dark room by ABTS assay. UV-1800 (Shimadzu Corporation, Kyoto, Japan) was used to measure UV absorption. Hellma’s 104.600-QC Quartz cell was used as a UV cell. IC50 values were obtained using OriginPro 8.0 software (OriginLab Corporation, Northampton, MA, USA).
Antioxidant assay using ABTS
The radical cation was prepared by mixing an equal amount of 7mM ABTS (2,2’-azino-bis(3-ethylbenzothiazoline-6-sulphonic acid)) stock solution with 2.45 mM potassium persulfate stock solution. This mixture was stored at 0 °C for 12 hours under darkness. The above ABTS […]
Then these solutions were diluted with methanol to 500 µM, 250 µM, 125 µM, 62.5 µM, […]
tubes, 0.9 mL of the ABTS solution and 0.1 mL of the compound solution were mixed under darkness. After 30 min of incubation, the UV absorption at 734 nm was measured. Control was used the mixture of 0.9 mL ABTS and 0.1 mL methanol. […]
as §13
For orientation: IC50 means the midpoint of a concentration-inhibition curve. `Oc1cc(O)cc(/C=C/c2ncc3cc(O)ccc3n2)c1` [Compound 7] returned an IC50 of 3.54 ± 0.714 µM.

Compound `Oc1cc(O)cc(/C=C/c2ccc3cc(O)ccc3c2)c1` [Compound 2] registered an IC50 of 3.14 ± 0.445 µM.

For `Oc1cc(O)cc(/C=C/c2cnc3cc(O)ccc3n2)c1` [Compound 6], the IC50 turned out to be 3.1 ± 0.953 µM.

As to `Oc1cc(O)cc(/C=C/c2ccc3cc(O)ccc3n2)c1` [Compound 4], the midpoint of inhibition, the IC50, lay at 3.61 ± 0.253 µM.

Regarding `Oc1cc(O)cc(/C=C/c2cnc3cc(O)ccc3c2)c1` [Compound 3], the concentration for half-maximal inhibition (IC50) was 3.57 ± 0.496 µM.

`O=C1O[C@H]([C@@H](O)CO)C(O)=C1O` [Ascorbic acid, reference compound] gave an IC50 of 19.8 ± 0.934 µM.

As for `Oc1cc(O)cc(/C=C/c2cc3ccc(O)cc3cn2)c1` [Compound 5], the IC50 amounted to 2.81 ± 0.034 µM.

Another series relates to IL-1β gene expression in LPS-stimulated RAW 264.7 cells. In words: Pro-inflammatory cytokine gene expression by endpoint RT-PCR, IL-1β. In kind it is cell-based, Murine. To be noted: 12.5~50 μM compound, 1 μg/mL LPS, 24 h. On the procedure:
as §1, §2, §3, §4, §5, §6, §7, §8, §9, §10, §11, §12
For `Oc1cc(O)cc(/C=C/c2ncc3cc(O)ccc3n2)c1` [Compound 7], the “Level of IL-1β gene expression” value is on record as “significantly reduced”.

For `Oc1cc(O)cc(/C=C/c2ccc3cc(O)ccc3c2)c1` [Compound 2], the “Level of IL-1β gene expression” value is “significantly reduced”.

`Oc1ccc(/C=C/c2cc(O)cc(O)c2)cc1` [Compound 1, 3,5,4′-trihydroxy-trans-stilbene, reference compound]: the “Level of IL-1β gene expression” value is “significantly reduced”.

Take `Oc1cc(O)cc(/C=C/c2cc3ccc(O)cc3cn2)c1` [Compound 5]: the “Level of IL-1β gene expression” value was “significantly reduced”.

A further series deals with NO production in LPS-treated RAW 264.7 cells. In words: Inhibition of NO production (Griess assay, nitrite) in LPS-treated RAW 264.7 cells. In kind it is cell-based, Murine. The settings on record: LPS 1 μg/mL, 24 h, NO2 released into culture media, mean ± SEM, n = 3. An excerpt:
In the pathogenesis of inflammatory-related disorders, NO is recognized as one of the important mediators. […] Herein, to understand the anti-inflammatory properties of the resveratrol analogues, we studied their inhibitory effects against NO production in LPS-treated RAW 264.7 cells. Although it is not possible to measure NO quantitatively in a biological environment due to its rapid oxidation to NO2 (nitrite), short physiological half-life and presence of other free radicals, NO secretion activity in cells is indirectly determined by Griess assay counting its stable product NO2 levels. The inhibitory effects of 1–7 on NO production were collected in Table 2. […] Cell viability was not affected up to 50 μM except for 2. […]
Anti-inflammatory activity was measured as the effect of compounds on inhibiting NO production versus cell viability. […]
Murine macrophage, Raw 264.7 cells were grown in Dulbecco’s modified Eagle’s medium (Gibco, Carlsbad , CA, USA), supplemented with 2 mM glutamine, antibiotics (100 U/mL of penicillin A and […] of streptomycin) and 10% FBS (Gibco). […] After incubation, the supernatant was collected and the amount of nitrite was quantified using the Griess Reagent System ( Promega, Fitchburg, WI, USA ). For the correction of NO production, cell viability was measured using the CellTiter 96® Aqueous one solution cell proliferation assay kit (Promega). […]
Regarding `Oc1cc(O)cc(/C=C/c2ncc3cc(O)ccc3n2)c1` [Compound 7], the “NO/MTT Assay ED50” value was 21.67 µM and 21.67 ± 1.101 µM.

Regarding `Oc1cc(O)cc(/C=C/c2cc3ccc(O)cc3cn2)c1` [Compound 5], the “NO/MTT Assay ED50” value was 13.08 µM and 13.08 ± 0.690 µM.
